Source: the supplement of paper PMC10307832

How the values were obtained:
Experiment in all cases: relative viability (nuclei count vs DMSO), 5 days (fraction); higher = more cells survive
Lapatinib + Dasatinib = compound: CS(=O)(=O)CCNCc1ccc(-c2ccc3ncnc(Nc4ccc(OCc5cccc(F)c5)c(Cl)c4)c3c2)o1 [Lapatinib] + Cc1nc(Nc2ncc(C(=O)Nc3c(C)cccc3Cl)s2)cc(N2CCN(CCO)CC2)n1 [Dasatinib] (partner 0.075 µM)
Summary of the method: (§1)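 Lung cancer cell lines, seeded in 1536-well plates, were treated the following day by pin tool with a single drug or with five library-drug doses (not always all listed) in √10 steps on top of a fixed anchor-drug dose. Cells were fixed and nuclei stained in one step after 5 days, and nuclei were counted. Relative viability is the nuclei count for treated wells divided by that for vehicle wells, reported as medians of duplicate plates.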

Lapatinib + Trametinib = compound: CS(=O)(=O)CCNCc1ccc(-c2ccc3ncnc(Nc4ccc(OCc5cccc(F)c5)c(Cl)c4)c3c2)o1 [Lapatinib] + CC(=O)Nc1cccc(-n2c(=O)n(C3CC3)c(=O)c3c(Nc4ccc(I)cc4F)n(C)c(=O)c(C)c32)c1 [Trametinib] (partner 0.02 µM)
Summary of the method: as §1

Lapatinib + Olaparib = compound: CS(=O)(=O)CCNCc1ccc(-c2ccc3ncnc(Nc4ccc(OCc5cccc(F)c5)c(Cl)c4)c3c2)o1 [Lapatinib] + O=C(c1cc(Cc2n[nH]c(=O)c3ccccc23)ccc1F)N1CCN(C(=O)C2CC2)CC1 [Olaparib] (partner 8 µM)
Summary of the method: as §1

Wnt-C59 + Pictilisib = compound: CC1=NC=CC(=C1)C2=CC=C(C=C2)CC(=O)NC3=CC=C(C=C3)C4=CN=CC=C4 [Wnt-C59] + CS(=O)(=O)N1CCN(Cc2cc3nc(-c4cccc5[nH]ncc45)nc(N4CCOCC4)c3s2)CC1 [Pictilisib] (partner 1 µM)
Summary of the method: as §1

Cell Line	relative viability (Lapatinib + Dasatinib; first compound 0.02 µM)	relative viability (Lapatinib + Dasatinib; first compound 0.06325 µM)	relative viability (Lapatinib + Dasatinib; first compound 0.2 µM)	relative viability (Lapatinib + Dasatinib; first compound 0.6325 µM)	relative viability (Lapatinib + Dasatinib; first compound 2 µM)	relative viability (Lapatinib + Trametinib; first compound 0.02 µM)	relative viability (Lapatinib + Trametinib; first compound 0.06325 µM)	relative viability (Lapatinib + Trametinib; first compound 0.2 µM)	relative viability (Lapatinib + Trametinib; first compound 0.6325 µM)	relative viability (Lapatinib + Trametinib; first compound 2 µM)	relative viability (Lapatinib + Olaparib; first compound 0.06325 µM)	relative viability (Lapatinib + Olaparib; first compound 0.2 µM)	relative viability (Lapatinib + Olaparib; first compound 0.6325 µM)	relative viability (Lapatinib + Olaparib; first compound 2 µM)	relative viability (Wnt-C59 + Pictilisib; first compound 0.001 µM)	relative viability (Wnt-C59 + Pictilisib; first compound 0.01 µM)	relative viability (Wnt-C59 + Pictilisib; first compound 0.03162 µM)	relative viability (Wnt-C59 + Pictilisib; first compound 0.1 µM)	relative viability (Lapatinib + Olaparib; first compound 0.02 µM)
NCI-H460	0.496	0.345	0.372	0.624	0.452	0.0377	0.0952	0.282	0.171	0.0626	0.406	0.421	0.41	0.262	0.33	0.327	0.373	0.32	–
NCI-H520	0.235	0.161	0.265	0.178	0.187	0.692	0.62	0.642	0.845	0.557	0.278	0.363	0.326	0.366	0.247	0.293	0.329	0.291	0.349
NCI-H596	–	0.521	0.621	0.573	0.486	–	0.745	0.777	0.854	0.617	0.578	0.713	0.679	0.567	0.43	0.437	0.381	0.421	–
NCI-H647	0.158	0.155	0.167	0.197	0.201	0.394	0.42	0.45	0.641	0.224	0.412	0.506	0.523	0.489	0.35	0.374	0.39	0.429	0.536
NCI-H650	–	0.389	0.404	0.458	0.439	–	0.78	0.965	0.955	0.927	0.355	0.372	0.397	0.337	0.838	0.94	0.982	0.685	–
NCI-H661	0.759	0.572	0.504	0.523	0.368	0.509	0.536	0.549	0.432	0.388	0.72	0.708	0.631	0.545	0.414	0.441	0.391	0.442	0.663
NCI-H727	–	–	0.317	0.338	0.359	0.365	–	0.436	0.382	0.363	–	0.88	0.668	0.645	0.381	0.342	0.43	0.309	0.666
NCI-H838	0.263	–	0.304	0.276	0.247	0.609	0.436	0.575	0.517	0.483	0.715	0.771	0.746	0.575	0.463	0.516	0.439	0.42	0.773
NCI-H1355	–	0.465	0.705	0.694	0.319	0.406	0.349	0.37	0.387	0.261	0.594	0.699	0.688	0.439	0.486	0.325	0.38	0.393	0.719
NCI-H1395	0.43	0.39	0.375	0.439	0.425	–	0.956	1.07	1.06	1.03	0.455	0.459	0.522	0.415	0.656	0.608	0.655	0.664	–
NCI-H1437	0.28	0.245	0.382	0.304	0.345	0.475	0.492	0.498	0.458	0.303	0.626	0.62	0.609	0.507	0.531	0.617	0.467	0.479	0.62
NCI-H1650	0.263	0.253	0.264	0.38	0.245	0.568	0.516	0.514	0.46	0.444	0.847	0.767	0.802	0.621	0.549	0.53	0.645	0.532	0.73
NCI-H1651	0.443	0.284	0.386	0.476	0.406	0.856	0.809	0.827	0.806	0.811	0.183	0.181	0.197	0.178	0.601	0.584	0.541	0.561	0.193
NCI-H1666	0.764	0.612	0.748	0.661	0.508	0.722	0.718	0.727	0.674	0.501	0.776	0.743	0.703	0.719	0.43	0.218	0.479	0.477	0.761
NCI-H1734	0.456	0.384	0.544	0.511	0.488	–	0.548	0.626	0.691	0.721	0.54	0.62	0.593	0.586	0.438	0.438	0.473	0.461	–
NCI-H1755	0.375	0.278	0.422	0.381	0.394	0.77	0.729	0.792	0.793	0.717	0.837	0.885	0.882	0.815	0.374	0.433	0.459	0.433	0.855
NCI-H1792	0.763	–	0.754	0.68	0.425	–	–	0.402	0.457	0.352	–	0.377	0.342	0.351	0.273	0.25	0.225	0.332	–
NCI-H1793	–	0.339	0.398	0.319	0.316	–	0.416	0.469	0.406	0.394	0.363	0.598	0.537	0.449	0.215	0.22	0.3	0.444	–
